Experiment [1] concerns the target FGFR3-BAIAP2L1 Ba/F3 cells (Homo sapiens, UniProt P22607). The experiment can be described thus: Ba/F3 cell viability assay (CellTiter-Glo 2.0), FGFR3-BAIAP2L1 Ba/F3. In kind it is cell-based. The settings on record: for Ba/F3 FGFR1/FGFR3 Selectivity: FGFR3 > FGFR1 selectivity ratio in Ba/F3 FGFR fusion cell based assays; for IC50: read-out: Ba/F3 Cells FGFR3 (IC50 nM), FGFR3-BAIAP2L1 Ba/F3 cells, 48 hours, Cell Titer Glo 2.0. The method, boiled down: (§1)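 Viability read as ATP luminescence (CellTiter-Glo 2.0) after 48 h compound exposure, normalized to DMSO-treated cells and fitted with a 4-parameter curve for IC50. Cells: Ba/F3 dependent on FGFR1-BCR or FGFR3-BAIAP2L1 fusion kinase; top dose 30 μM, 10-fold steps, 9 doses in triplicate.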

The target in another experiment is FGFR3 (Homo sapiens (Human), UniProt P22607). The experiment can be described thus: Kinase assay, binding constants (Kd), kinase-tagged T7 phage, qPCR. The method in brief: (§2)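 Kinase-tagged T7 phage (grown in BL21-derived E. coli) competed with test compound for immobilized biotinylated ligand on streptavidin beads. Kds came from an 11-point 3-fold dilution series at 0.9% final DMSO. Bound kinase was eluted with non-biotinylated ligand and quantified by qPCR, with Hill slope fixed at −1.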
Sequence of FGFR3 (P22607 23-806): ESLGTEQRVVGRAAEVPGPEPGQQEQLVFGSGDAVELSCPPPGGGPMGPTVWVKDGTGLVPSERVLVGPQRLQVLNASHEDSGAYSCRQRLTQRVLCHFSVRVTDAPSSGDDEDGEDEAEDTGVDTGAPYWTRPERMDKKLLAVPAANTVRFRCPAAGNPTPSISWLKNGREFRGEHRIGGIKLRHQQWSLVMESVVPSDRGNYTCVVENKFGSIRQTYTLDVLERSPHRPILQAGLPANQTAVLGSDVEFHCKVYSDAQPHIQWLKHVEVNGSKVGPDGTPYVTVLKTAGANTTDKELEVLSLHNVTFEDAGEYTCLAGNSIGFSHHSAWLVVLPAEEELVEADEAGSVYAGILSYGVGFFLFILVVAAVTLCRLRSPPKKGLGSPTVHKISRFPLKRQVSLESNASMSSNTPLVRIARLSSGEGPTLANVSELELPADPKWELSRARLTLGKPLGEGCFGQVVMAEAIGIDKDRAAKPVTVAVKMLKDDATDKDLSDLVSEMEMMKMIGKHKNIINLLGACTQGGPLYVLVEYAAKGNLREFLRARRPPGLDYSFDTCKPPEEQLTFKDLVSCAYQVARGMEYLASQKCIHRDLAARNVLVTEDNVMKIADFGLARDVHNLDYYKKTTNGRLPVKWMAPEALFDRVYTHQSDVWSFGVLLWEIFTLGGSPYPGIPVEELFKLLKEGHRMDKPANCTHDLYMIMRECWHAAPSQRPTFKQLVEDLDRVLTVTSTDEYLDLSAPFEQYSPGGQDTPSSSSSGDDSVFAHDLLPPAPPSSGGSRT
In general terms: In qPCR the cycle at which signal appears reflects the starting amount.

The next experiment deals with FGFR4 (Homo sapiens (Human), UniProt P22455). The experiment is described as above. The method in brief:
as §2

The next experiment deals with FGFR3 (V555M) (Homo sapiens (Human), UniProt P22607, V555M). Described as above. The settings on record: V555M mutant. The method in brief: as §2
Sequence of FGFR3 (V555M) (P22607 23-806 V555M): as the sequence (P22607 23-806) above, with V533M counted along it
In another experiment the target is FGFR1 (Homo sapiens (Human), UniProt P11362). Described as above. The method, boiled down: as §2
Sequence of FGFR1 (P11362 22-822): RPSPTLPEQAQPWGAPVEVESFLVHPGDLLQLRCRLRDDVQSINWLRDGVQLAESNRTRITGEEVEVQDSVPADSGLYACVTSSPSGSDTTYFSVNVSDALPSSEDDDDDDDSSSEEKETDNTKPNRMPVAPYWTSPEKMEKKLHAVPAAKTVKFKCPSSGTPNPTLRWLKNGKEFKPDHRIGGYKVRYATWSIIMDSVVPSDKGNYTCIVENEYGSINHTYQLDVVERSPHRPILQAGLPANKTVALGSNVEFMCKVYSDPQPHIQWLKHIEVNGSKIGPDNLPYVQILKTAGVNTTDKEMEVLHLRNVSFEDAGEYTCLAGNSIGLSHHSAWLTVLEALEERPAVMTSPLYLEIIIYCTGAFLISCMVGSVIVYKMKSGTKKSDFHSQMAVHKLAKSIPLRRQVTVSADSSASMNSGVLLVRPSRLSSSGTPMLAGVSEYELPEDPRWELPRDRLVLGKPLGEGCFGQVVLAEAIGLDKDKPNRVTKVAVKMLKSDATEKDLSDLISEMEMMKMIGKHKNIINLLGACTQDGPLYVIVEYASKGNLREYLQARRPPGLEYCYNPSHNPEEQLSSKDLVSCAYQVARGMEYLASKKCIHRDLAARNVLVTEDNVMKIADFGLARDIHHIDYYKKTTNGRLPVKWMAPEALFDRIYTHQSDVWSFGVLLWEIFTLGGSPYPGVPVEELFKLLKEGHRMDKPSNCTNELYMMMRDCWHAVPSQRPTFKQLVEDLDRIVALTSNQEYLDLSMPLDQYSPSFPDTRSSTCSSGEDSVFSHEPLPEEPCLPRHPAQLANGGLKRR
The next experiment deals with FGFR2 (Homo sapiens (Human), UniProt P21802). The description is as above. The method in brief: as §2
Sequence of FGFR2 (P21802 22-821): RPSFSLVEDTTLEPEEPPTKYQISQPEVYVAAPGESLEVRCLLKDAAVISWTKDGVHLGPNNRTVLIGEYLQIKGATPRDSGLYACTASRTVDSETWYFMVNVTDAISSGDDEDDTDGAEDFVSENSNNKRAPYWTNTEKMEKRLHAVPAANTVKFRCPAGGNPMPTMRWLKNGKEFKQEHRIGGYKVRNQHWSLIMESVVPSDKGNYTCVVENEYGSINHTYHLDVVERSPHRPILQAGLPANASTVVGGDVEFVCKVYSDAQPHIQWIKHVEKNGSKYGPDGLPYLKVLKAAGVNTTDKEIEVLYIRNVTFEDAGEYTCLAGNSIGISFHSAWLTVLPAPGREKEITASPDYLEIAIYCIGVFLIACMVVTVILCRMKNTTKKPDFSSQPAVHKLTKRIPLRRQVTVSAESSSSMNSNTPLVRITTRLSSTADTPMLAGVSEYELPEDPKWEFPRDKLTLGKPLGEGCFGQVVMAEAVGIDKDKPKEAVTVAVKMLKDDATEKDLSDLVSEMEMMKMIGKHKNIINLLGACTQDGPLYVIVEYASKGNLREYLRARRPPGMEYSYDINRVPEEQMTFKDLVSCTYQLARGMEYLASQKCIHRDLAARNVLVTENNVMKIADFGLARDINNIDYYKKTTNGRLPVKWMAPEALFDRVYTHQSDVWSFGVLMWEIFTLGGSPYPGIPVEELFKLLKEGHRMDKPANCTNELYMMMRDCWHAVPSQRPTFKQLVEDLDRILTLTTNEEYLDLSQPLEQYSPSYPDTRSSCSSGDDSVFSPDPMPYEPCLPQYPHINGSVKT
Another experiment addresses FGFR1-BCR Ba/F3 cells (Homo sapiens, UniProt P11362). The experiment can be described thus: Ba/F3 cell viability assay (CellTiter-Glo 2.0), FGFR1-BCR Ba/F3. It is filed as cell-based. To be noted: read-out: Ba/F3 Cells FGFR1 (IC50 nM), 48 hours, Cell Titer Glo 2.0. The method in brief: as §1

Sequence of FGFR1-BCR Ba/F3 cells (P11362 22-822 limits assumed, change not shown): as the sequence (P11362 22-822) above
Sequence of FGFR3-BAIAP2L1 Ba/F3 cells (P22607 23-806 limits assumed, change not shown): as the sequence (P22607 23-806) above
Sequence of FGFR4 (P22455 22-802): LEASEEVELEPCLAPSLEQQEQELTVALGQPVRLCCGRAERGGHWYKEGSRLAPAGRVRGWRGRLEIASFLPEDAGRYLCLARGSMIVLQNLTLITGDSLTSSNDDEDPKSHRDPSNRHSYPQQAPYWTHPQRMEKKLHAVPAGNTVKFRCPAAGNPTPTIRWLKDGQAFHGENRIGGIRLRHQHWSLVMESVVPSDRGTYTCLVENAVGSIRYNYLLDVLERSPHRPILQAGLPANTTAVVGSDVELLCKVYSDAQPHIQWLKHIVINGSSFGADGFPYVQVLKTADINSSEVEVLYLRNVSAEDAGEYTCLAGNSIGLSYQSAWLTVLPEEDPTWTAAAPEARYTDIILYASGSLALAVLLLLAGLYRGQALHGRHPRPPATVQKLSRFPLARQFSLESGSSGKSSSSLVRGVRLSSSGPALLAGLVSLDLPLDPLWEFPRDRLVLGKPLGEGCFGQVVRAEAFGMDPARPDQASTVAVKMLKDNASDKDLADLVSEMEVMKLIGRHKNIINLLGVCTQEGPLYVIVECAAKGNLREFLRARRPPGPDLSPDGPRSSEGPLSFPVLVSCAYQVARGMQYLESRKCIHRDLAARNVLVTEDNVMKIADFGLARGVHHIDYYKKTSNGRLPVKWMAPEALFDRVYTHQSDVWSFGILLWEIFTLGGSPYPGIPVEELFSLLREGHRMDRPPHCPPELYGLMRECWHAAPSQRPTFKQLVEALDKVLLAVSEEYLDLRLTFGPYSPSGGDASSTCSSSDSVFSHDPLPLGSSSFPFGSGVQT

By Kd is commonly meant the concentration at which binding is half-saturated. For the compound `COC(=O)N1CCCC2(C1)CN(c1ccc(-c3n[nH]c4ccc(O[C@H](C)c5c(Cl)cncc5Cl)cc34)cn1)C2` [Example 165, methyl 2-[5-[5-[(1R)-1-(3,5-dichloro-4-pyridyl)ethoxy]-1H-indazol-3-yl]-2-pyridyl]-2,8-diazaspiro[3.5]nonane-8-carboxylate], in experiment [1], the “Ba/F3 FGFR1/FGFR3 Selectivity” value came out at 16. Moreover, the figures for the IC50 (in experiment [1]; on FGFR1-BCR Ba/F3 cells) were 1 to 20 nM and 100 to 300 nM, respectively. In addition, the Kd on FGFR3 is 1 to 20 nM; on FGFR4 it was 1 to 20 nM; at FGFR3 (V555M), 1 to 20 nM; at FGFR1, 20 to 100 nM; on FGFR2, 1 to 20 nM.
Take `C[C@@H](Oc1ccc2[nH]nc(-c3cnn(C4CCNCC4)c3)c2c1)c1cc(F)cc(F)c1` [Example 166, 5-[(1R)-1-(3,5-difluorophenyl)ethoxy]-3-[1-(4-piperidyl)pyrazol-4-yl]-1H-indazole]: the “Ba/F3 FGFR1/FGFR3 Selectivity” value in experiment [1] is given as 6. In addition, the figures for the IC50 (in experiment [1]; on FGFR1-BCR Ba/F3 cells) were 100 to 300 nM and over 300 nM, respectively. The Kd is 1 to 20 nM at FGFR3; over 300 nM on FGFR4; 1 to 20 nM on FGFR3 (V555M); 20 to 100 nM on FGFR1; 1 to 20 nM at FGFR2.
Take `C[C@@H](Oc1ccc2[nH]nc(-c3cnn(C4CCN(C5COC5)CC4)c3)c2c1)c1cc(F)cc(F)c1` [Example 168, 5-[(1R)-1-(3,5-difluorophenyl)ethoxy]-3-[1-[1-(oxetan-3-yl)-4-piperidyl]pyrazol-4-yl]-1H-indazole]: in experiment [1], the “Ba/F3 FGFR1/FGFR3 Selectivity” value was determined as 8. Also, the IC50 in experiment [1] was 20 to 100 nM; at FGFR1-BCR Ba/F3 cells, over 300 nM. Moreover, the Kd at FGFR3 was 1 to 20 nM; at FGFR4, over 300 nM; on FGFR3 (V555M), 1 to 20 nM; on FGFR1, 100 to 300 nM; at FGFR2 it was 20 to 100 nM.
For the compound `C[C@@H](Oc1ccc2[nH]nc(-c3ccc(N4CC5(C4)CN(S(C)(=O)=O)C5)nc3)c2c1)c1c(Cl)cccc1Cl` [Example 170, 5-[(1R)-1-(2,6-dichlorophenyl)ethoxy]-3-[6-(2-methylsulfonyl-2,6-diazaspiro[3.3]heptan-6-yl)-3-pyridyl]-1H-indazole], the “Ba/F3 FGFR1/FGFR3 Selectivity” value in experiment [1] came out at 14. Further, the IC50 is 20 to 100 nM in experiment [1] and over 300 nM on FGFR1-BCR Ba/F3 cells. The Kd at FGFR3 fell in the range of 1 to 20 nM; on FGFR4, 100 to 300 nM; at FGFR3 (V555M) it was 1 to 20 nM; at FGFR1, 100 to 300 nM; at FGFR2 it was 20 to 100 nM.

Source of the values: patent publication US20240109865A1, “INDAZOLE COMPOUNDS AS KINASE INHIBITORS” (TYRA BIOSCIENCES, INC., priority 2020, published 2024).
